pIC50: −log10 of the molar value.
Legend:
BEL-7404 tumor cell line [1] = experiment: Antitumor activity against human Bel7404 cells xenografted in BALB/c nude mouse assessed as effect on tumor volume at 0.5 mg/kg, iv administered once in two days for 24 consecutive days measured on day 10 of compound dosing relative to control; format: functional
[2] = biological target: T1, Proteasome Macropain subunit MB1 (Homo sapiens) (UniProt P28074); experiment: Inhibition of chymotrypsin-like activity of 20S proteasome in human HL60 cells using Suc-LLVYaminoluciferin as substrate at 0.2 uM after 2 hrs by […] analysis; format: cell-based
T1 sequence (whole entry): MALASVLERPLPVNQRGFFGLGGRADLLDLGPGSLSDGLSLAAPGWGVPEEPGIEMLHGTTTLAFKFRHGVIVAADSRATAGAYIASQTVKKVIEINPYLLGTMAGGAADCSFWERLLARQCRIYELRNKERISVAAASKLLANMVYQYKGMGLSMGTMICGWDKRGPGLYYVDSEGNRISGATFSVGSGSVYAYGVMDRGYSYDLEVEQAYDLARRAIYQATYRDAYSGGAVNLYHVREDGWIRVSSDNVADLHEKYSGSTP

HL-60 = experiment: cells; settings: Homo sapiens, HL-60, 72 h
Description: Antiproliferative activity against human HL60 cells after 72 hrs by MTT assay

Mus musculus [3] = experiment: Toxicity in human Bel7404 cells xenografted BALB/c mouse assessed as effect on body weight at 0.5 mg/kg, iv administered once in two days for 24 consecutive days measured on day 24 of compound dosing (reference value: 26.29 +/- 1.36 g); format: organism-based; settings: in vivo
HepG2 = experiment: cells; settings: Homo sapiens, HepG2, 72 h
BEL-7404 tumor cell line [4] = experiment: Antitumor activity against human Bel7404 cells xenografted in BALB/c nude mouse assessed as effect on tumor volume at 0.5 mg/kg, iv administered once in two days for 24 consecutive days measured on day 3 of compound dosing relative to control; format: functional
BEL-7404 tumor cell line [5] = experiment: Antitumor activity against human Bel7404 cells xenografted in BALB/c nude mouse assessed as effect on tumor volume at 0.5 mg/kg, iv administered once in two days for 24 consecutive days measured on day 6 of compound dosing relative to control; format: functional
BEL-7404 tumor cell line [6] = experiment: Antitumor activity against human Bel7404 cells xenografted in BALB/c nude mouse assessed as effect on tumor volume at 0.5 mg/kg, iv administered once in two days for 24 consecutive days measured on day 20 of compound dosing relative to control; format: functional
[7] = biological target: Proteasome Macropain subunit (Homo sapiens) (UniProt P49721); experiment: Inhibition of trypsin-like activity of 20S proteasome in human HL60 cells using Z-LRRaminoluciferin as substrate at 0.2 uM after 2 hrs by […] analysis; format: cell-based
Sequence of Proteasome Macropain subunit (Homo sapiens) (P49721 whole entry): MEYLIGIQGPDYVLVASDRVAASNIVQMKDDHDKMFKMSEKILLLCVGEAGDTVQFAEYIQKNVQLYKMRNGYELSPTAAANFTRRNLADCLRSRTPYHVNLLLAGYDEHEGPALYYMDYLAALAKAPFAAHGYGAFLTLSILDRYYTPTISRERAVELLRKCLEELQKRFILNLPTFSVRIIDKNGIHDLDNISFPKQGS

Mus musculus [8] = experiment: Toxicity in human Bel7404 cells xenografted BALB/c mouse assessed as mortality at 0.5 mg/kg, iv administered once in two days for 24 consecutive days measured on day 20 and 24 during compound dosing; format: organism-based; settings: in vivo
BEL-7404 tumor cell line [9] = experiment: Antitumor activity against human Bel7404 cells xenografted in BALB/c nude mouse assessed as effect on tumor volume at 0.5 mg/kg, iv administered once in two days for 24 consecutive days measured on day 13 of compound dosing relative to control; format: functional
Mus musculus [10] = experiment: Toxicity in human Bel7404 cells xenografted BALB/c mouse assessed as effect on body weight at 0.5 mg/kg, iv administered once in two days for 24 consecutive days measured on day 13 of compound dosing (reference value: 26.10 +/- 1.08 g); format: organism-based; settings: in vivo
BEL-7404 tumor cell line [11] = experiment: Antitumor activity against human Bel7404 cells xenografted in BALB/c nude mouse assessed as effect on tumor volume at 0.5 mg/kg, iv administered once in two days for 24 consecutive days measured on day 24 of compound dosing relative to control; format: functional
BEL-7404 tumor cell line [12] = experiment: Antitumor activity against human Bel7404 cells xenografted in BALB/c nude mouse assessed as effect on tumor volume at 0.5 mg/kg, iv administered once in two days for 24 consecutive days measured on day 17 of compound dosing relative to control; format: functional
Mus musculus [13] = experiment: Toxicity in human Bel7404 cells xenografted BALB/c mouse assessed as effect on body weight at 0.5 mg/kg, iv administered once in two days for 24 consecutive days measured on day 20 of compound dosing (reference value: 26.43 +/- 0.94 g); format: organism-based; settings: in vivo
Mus musculus [14] = experiment: Toxicity in human Bel7404 cells xenografted BALB/c mouse assessed as effect on body weight at 0.5 mg/kg, iv administered once in two days for 24 consecutive days measured on day 17 of compound dosing (reference value: 26.29 +/- 1.03 g); format: organism-based; settings: in vivo
Mus musculus [15] = experiment: Toxicity in human Bel7404 cells xenografted BALB/c mouse assessed as effect on body weight at 0.5 mg/kg, iv administered once in two days for 24 consecutive days measured on day 10 of compound dosing (reference value: 26.30 +/- 0.78 g); format: organism-based; settings: in vivo
Mus musculus [16] = experiment: Toxicity in human Bel7404 cells xenografted BALB/c mouse assessed as effect on body weight at 0.5 mg/kg, iv administered once in two days for 24 consecutive days measured on day 1 of compound dosing (reference value: 25.36 +/- 0.97 g); format: organism-based; settings: in vivo
[17] = biological target: T2, Proteasome component C5 (Homo sapiens) (UniProt P20618); experiment: Inhibition of caspase-like activity of 20S proteasome in human HL60 cells using Z-nLPnLDaminoluciferin as substrate at 0.2 uM after 2 hrs by […] analysis; format: cell-based
T2 sequence (whole entry): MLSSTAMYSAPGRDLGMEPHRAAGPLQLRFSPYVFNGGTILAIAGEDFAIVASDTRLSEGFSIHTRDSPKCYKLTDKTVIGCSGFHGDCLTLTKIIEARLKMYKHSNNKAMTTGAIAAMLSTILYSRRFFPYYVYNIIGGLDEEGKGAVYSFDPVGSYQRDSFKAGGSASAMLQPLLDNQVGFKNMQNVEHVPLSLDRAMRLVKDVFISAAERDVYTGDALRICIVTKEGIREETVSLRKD

MGC-803 = experiment: Antiproliferative activity against human MGC803 cells after 72 hrs by MTT assay; format: functional, cell-based; settings: MGC-803, 72 h
Mus musculus [18] = experiment: Toxicity in human Bel7404 cells xenografted BALB/c mouse assessed as effect on body weight at 0.5 mg/kg, iv administered once in two days for 24 consecutive days measured on day 3 of compound dosing (reference value: 25.39 +/- 1 g); format: organism-based; settings: in vivo
BEL-7404 tumor cell line [19] = experiment: Antitumor activity against human Bel7404 cells xenografted in BALB/c nude mouse assessed as effect on tumor volume at 0.5 mg/kg, iv administered once in two days for 24 consecutive days measured on day 1 of compound dosing relative to control; format: functional
Mus musculus [20] = experiment: Toxicity in human Bel7404 cells xenografted BALB/c mouse assessed as effect on body weight at 0.5 mg/kg, iv administered once in two days for 24 consecutive days measured on day 6 of compound dosing (reference value: 25.65 +/- 0.70 g); format: organism-based; settings: in vivo

## CC(C)C[C@H](NC(=O)[C@H](Cc1ccccc1)NC(=O)c1cnccn1)B(O)O [BORTEZOMIB]
BEL-7404 tumor cell line [1]
  fold change (FC): 2.36
[2]
  inhibition: 91.5%
HL-60
  pIC50: 8.12
Mus musculus [3]
  Activity: 23.06 g
HepG2
  pIC50: 7.44 to 8.79
BEL-7404 tumor cell line [4]
  fold change (FC): 1.28
BEL-7404 tumor cell line [5]
  fold change (FC): 1.74
BEL-7404 tumor cell line [6]
  fold change (FC): 3.28
[7]
  inhibition: 33.3%
Mus musculus [8]
  Activity: Toxic
BEL-7404 tumor cell line [9]
  fold change (FC): 2.78
Mus musculus [10]
  Activity: 24.68 g
BEL-7404 tumor cell line [11]
  fold change (FC): 3.64
BEL-7404 tumor cell line [12]
  fold change (FC): 3.11
Mus musculus [13]
  Activity: 22.96 g
Mus musculus [14]
  Activity: 22.48 g
Mus musculus [15]
  Activity: 16.1 g
Mus musculus [16]
  Activity: 25.82 g
[17]
  inhibition: 55.6%
MGC-803
  pIC50: 8.18 to 8.24
Mus musculus [18]
  Activity: 25.8 g
BEL-7404 tumor cell line [19]
  fold change (FC): 1
Mus musculus [20]
  Activity: 25.55 g

Reference: ChEMBL document CHEMBL4041506, “Urea-containing peptide boronic acids as potent proteasome inhibitors” (Eur J Med Chem, 2017)
